Results on 2 compounds are retold here after patent US20240140947A1, “COMPOUND FOR THE TREATMENT OF CANCER” (priority 2022, published 2024).

Like-named read-outs stand apart in the source and are kept apart here.

The test system of one data set is OVCAR3. In words: Cell proliferation assay (CYQUANT, 7 days), OVCAR3. In kind it is cell-based. The following applies: Homo sapiens, OVCAR-3, 168 h, read-out: IC50 ± SEM, proliferation inhibition. On the procedure:
(§1) Cellular CDK activity of Compound 1 and PF-06873600 were assessed in human CCNE1-amplified ovarian cancer cell line model OVCAR3 and human ER+ breast cancer cell line model MCF7 cells. […] OVCAR3 cells were treated overnight with 1 mM hydroxyurea to enrich for G1/S phase cells prior to treatment with inhibitors. Functional effects were measured in a 7-day anti-proliferation assay in one human ovarian cancer (OVCAR3), two human ER+ breast cancer (MCF7 and T47D) and three human non-small cell lung cancer (NCIH2087, NCIH358 and A549) cell line models.
(§2) OVCAR3, MCF7, T47D, HCC1428, NCIH2087, NCIH358 or A549cells were seeded 1-3000 cells/well in 96-well plates in growth media containing 10% FBS and cultured overnight at 37° C. 5% CO2. The following day, compounds were serially diluted from a 10 mM top dose for an 11-point 3-fold dilution curve in DMSO. […] CYQUANT Direct Cell Proliferation Assay (Molecular Probes, Eugene, OR) was then performed following manufacturer recommendations to determine the relative viable cell numbers on the Perkin Elmer Envision 2104 Multi Label Reader at 508 nm excitation and 527 nm emission wavelengths. IC50 values were calculated by concentration-response curve fitting utilizing a four-parameter analytical method using GraphPad Prism software.

The next data set has as its system MCF7 PalboR. In words: Cell proliferation assay (CYQUANT, 7 days), MCF7 PalboR. In kind it is cell-based. The following applies: Homo sapiens, read-out: IC50 ± SEM, proliferation inhibition. Here is the method: as §1
as §2, with “CO2.” for “CO2. The following day, compounds were serially diluted from a 10 mM top dose for an 11-point 3-fold dilution curve in DMSO.”
(§3) The effect of Compound 1 on cell proliferation was assessed in multiple ER+ breast cancer cell lines, including parental and palbociclib resistant cell lines.

For another data set, the system named is T47D parental. In words: Cell proliferation assay (CYQUANT, 7 days), T47D parental. The class given is cell-based. The following applies: Homo sapiens, 168 h, read-out: IC50 ± SEM, proliferation inhibition. On the procedure:
as §1, §2

The nature of data set [1]: Mouse early toxicology screening (ETS) study. In kind it is in vivo. The following applies: for bone marrow histology: day 14, Compound 1 75 mg/kg BID, PF-06873600 150 mg/kg BID, compared with vehicle. Here is the method:
Three groups of ten-week-old male CD1 mice were separately evaluated in early toxicology screening studies. Group 1 (n=5/group) were administered an oral dose of 25, 50 and 75 mg/kg BID of Compound 1 for 14 days. Group 2 (n=5/group) were administered an oral dose of 25, 75 and 150 mg/kg BID of PF-06873600 for 14 days. A vehicle control Group 3 (n=5/group) were also included where vehicle was administered BID for 14 days. Study evaluations included clinical observations, body weights, clinical pathology, toxicokinetics, gross pathology and microscopic pathology.
At the end of the ETS study on day 14, mice were sacrificed and images of the mouse bone marrow from each study group (n=5) were obtained.
The systemic exposure of Compound 1 and PF-06873600 were also compared. Exposures from mouse toxicity studies were determined using plasma samples collected as timepoints on day 8 or 14 of the study and were processed using protein precipitation with solvent mixture acetonitrile:methanol (1:1) containing internal standard verapamil followed by quantitation by LC-MS/MS against a standard curve prepared in blank plasma. The free plasma concentrations were calculated using the mouse plasma protein binding for compound 1 (fup=0.182) and PF-06873600 (fup=0.277). (FIG. 3)

The test system of data set [2] is phosphorylation of Rb protein at serines 807/811 in MCF7 cells. In words: Phospho-Serine 807/811 Rb ELISA in MCF7 cells. The class given is cell-based. The following applies: Homo sapiens, read-out: IC50 ± SEM, modulation of pRB Serine 807/811. Here is the method: as §1
OVCAR3 or MCF7 cells were seeded at 25,000 cells/well in 100 μL growth media and allowed to adhere at 37° C. with 5% CO2 overnight. OVCAR3 cells were treated overnight with 1 mM hydroxyurea to enrich for G1/S phase cells prior to treatment with inhibitors. The following day, compounds were serially diluted from a 10 mM top dose for an 11-point 3-fold dilution curve in DMSO. Compound 1 and PF-06873600 were intermediately diluted 1:200 into growth media prior to diluting 1:5 on cells for final concentration 10 μM to 0.1 nM in 0.1% DMSO on cells. […] Plates were read in luminescence mode and IC50 values calculated.
The cellular activity of Compound 1 was evaluated in ER+, HER2− MCF7 cells and CCNE1-amplified ovarian carcinoma. Activity was determined by inhibition of phosphorylation of […]
A general note: In an ELISA, binding on a coated surface is turned into a signal by an enzyme label.

The next data set concerns T47D PalboR. Briefly: Cell proliferation assay (CYQUANT, 7 days), T47D PalboR. In kind it is cell-based. The following applies: Homo sapiens, 168 h, read-out: IC50 ± SEM, proliferation inhibition. Here is the method:
as §1
as §2, with “CO2.” for “CO2. The following day, compounds were serially diluted from a 10 mM top dose for an 11-point 3-fold dilution curve in DMSO.”
as §3

Another data set deals with HCC1428 PalboR. In words: Cell proliferation assay (CYQUANT, 7 days), HCC1428 PalboR. In kind it is cell-based. The following applies: Homo sapiens, read-out: IC50 ± SEM, proliferation inhibition. Here is the method:
(§4) OVCAR3, MCF7, T47D, HCC1428, NCIH2087, NCIH358 or A549cells were seeded 1-3000 cells/well in 96-well plates in growth media containing 10% FBS and cultured overnight at 37° C. 5% CO2. The following day, compounds were serially diluted from a 10 mM top dose for an 11-point 3-fold dilution curve in DMSO. Compound 1 and PF-06873600 were intermediately diluted 1:200 into growth media prior to diluting 1:5 on cells for final concentration 10 μM to 0.1 nM in 0.1% DMSO on cells. Cells were incubated at 37° C. 5% CO2 for 7 days. CYQUANT Direct Cell Proliferation Assay (Molecular Probes, Eugene, OR) was then performed following manufacturer recommendations to determine the relative viable cell numbers on the Perkin Elmer Envision 2104 Multi Label Reader at 508 nm excitation and 527 nm emission wavelengths. IC50 values were calculated by concentration-response curve fitting utilizing a four-parameter analytical method using GraphPad Prism software.
as §3

Data set [3] is described as follows: Human hepatocyte stability. In kind it is in vitro ADME. The following applies: hepatocytes, 0.5 million cells/mL, 37° C., 4 hours, read-out: CLint HHEP: CLint in human hepatocytes (in vitro).
Method: At various time points, samples were taken and analyzed by LC-MS/MS. CLint HHEP was calculated based on loss of parent compound over time using equations discussed in “A novel relay method for determining low-clearance values,” Drug Metab Dispos., 2012; 40(9):1860-5.
In another data set the test system is HCC1428 parental. In words: Cell proliferation assay (CYQUANT, 7 days), HCC1428 parental. The class given is cell-based. The following applies: Homo sapiens, read-out: IC50 ± SEM, proliferation inhibition. Here is the method: as §4, §3
Another data set deals with A549. Briefly: Cell proliferation assay (CYQUANT, 7 days), A549. The following applies: Homo sapiens, read-out: IC50 ± SEM, proliferation inhibition. In kind it is cell-based. On the procedure:
as §1, §2

Regarding `C[C@@]1(O)CCC[C@H]1n1c(=O)c(CC(F)F)cc2cnc(NC3CCN(S(N)(=O)=O)CC3)nc21` [Compound 1, 4-({6-(2,2-difluoroethyl)-8-[(1R,2R)-2-hydroxy-2-methylcyclopentyl]-7-oxo-7,8-dihydropyrido[2,3-d]pyrimidin-2-yl}amino)piperidine-1-sulfonamide], the IC50 with OVCAR3 (OVCAR3, 7 days, mean) turned out to be 11.4 nM; in the data set with MCF7 PalboR (168 h, MCF7 PalboR, 7 days, mean) it was 37.3 ± 2.8 nM; in the data set on T47D parental (T47D parental, 7 days, mean) it was 17.6 ± 2.5 nM; in data set [2] (MCF7, mean, treated 24 h (overnight)), 148 nM; in the data set with T47D PalboR (T47D PalboR, 7 days, mean) it was 65.7 ± 8.8 nM; with HCC1428 PalboR (168 h, HCC1428 PalboR, 7 days, mean), 61.4 ± 4.9 nM. Moreover, the IC50 in the data set on HCC1428 parental (168 h, HCC1428 parental, 7 days, mean) was 14.3 ± 4.4 nM; in the data set on A549 (168 h, A549, 7 days, mean), 121 ± 10.1 nM. In addition, in [1], the bone marrow histology result is “lack of impact on the mouse bone marrow”. In addition, the neutropenia entry in data set [1] (male CD1 mice, oral 25, 50 and 75 mg/kg BID for 14 days) was “no neutropenia was observed”. Also, in data set [3], the hepatocyte CLint at 1 μM is about 2 µL/min/1e6 cells.
As to `C[C@@]1(O)CCC[C@H]1n1c(=O)c(C(F)F)cc2cnc(NC3CCN(S(C)(=O)=O)CC3)nc21` [Compound 2, reference compound], the IC50 in the data set with OVCAR3 amounted to 70 ± 11.7 nM; in the data set with MCF7 PalboR (MCF7, 168 h) it was 111 ± 56.1 nM; with T47D parental (T47D), 70.6 ± 14.1 nM; in [2] (MCF7, 24 h), 70.6 nM; in the data set with T47D PalboR (T47D) it was 253 ± 55.1 nM; with HCC1428 PalboR (HCC1428, 168 h) it was 269 ± 63.9 nM. Also, the IC50 in the data set on HCC1428 parental (HCC1428, 168 h) was 96.7 ± 26.4 nM; in the data set with A549 (A549, 168 h), 189 nM. Moreover, in data set [1], the bone marrow histology entry is “vacuoles and large spaces between cells in the bone marrow image indicating cell death/apoptosis”. Also, in data set [3], the hepatocyte CLint at 1 μM is about 2 µL/min/1e6 cells.
